Drawing on US10000473B2, “Indazole derivatives useful as glucagon receptor antagonists” (Janssen Pharmaceutica NV, priority 2016, dated 2018), this text covers Ki for 16 compounds.

This experiment deals with T1, human GCGR (Homo sapiens, UniProt P47871).
T1 construct: expressed in transfected cells; host or cells: HEK293 (hGluc-1HEK), pcDNA3.1, G418 selection
T1 sequence (P47871 26-477): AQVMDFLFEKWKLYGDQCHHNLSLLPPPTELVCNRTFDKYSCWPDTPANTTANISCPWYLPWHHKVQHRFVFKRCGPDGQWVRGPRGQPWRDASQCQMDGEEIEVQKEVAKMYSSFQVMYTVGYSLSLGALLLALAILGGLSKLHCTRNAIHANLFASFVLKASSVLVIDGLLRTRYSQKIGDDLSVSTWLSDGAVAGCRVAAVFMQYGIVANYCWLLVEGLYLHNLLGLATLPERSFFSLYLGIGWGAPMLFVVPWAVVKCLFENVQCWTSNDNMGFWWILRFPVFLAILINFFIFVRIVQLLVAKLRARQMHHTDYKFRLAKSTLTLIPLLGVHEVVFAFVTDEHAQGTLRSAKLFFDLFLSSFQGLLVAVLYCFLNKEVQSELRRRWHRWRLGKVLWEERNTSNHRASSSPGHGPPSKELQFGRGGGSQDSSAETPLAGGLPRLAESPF
In words: Cellular functional assay, cAMP readout (glucagon-stimulated cAMP, LANCE TR-FRET). The experiment is classed as cell-based. Particulars: HEK293 cells stably expressing full-length human GCGR; glucagon 100 pM; IC50 converted to Ki; read-out: Inhibition of cAMP Ki. How it is done: IC50 Values in Cellular Functional Assays: cAMP Readout
Full-length human GCGR (Accession Number: NM000160) subcloned into pcDNA3.1 was stably transfected into HEK293 cells (hGluc-1HEK) and maintained under G418 selection (500 μg/mL). Cell cultures were maintained in DMEM/F12 media supplemented with 10% FBS and 1% GlutaMax™ Supplement (Available from ThermoFisher Scientific, catalog #35050061). Glucagon stimulated cAMP was quantified using LANCE technology as per manufacturer instructions. On the day of the experiment, spent media was removed and cells were washed with Hank's Buffered Saline solution (HBSS), and cells harvested with non-enzymatic cell dissociation solution, then washed once with HBSS. Cells were re-suspended in stimulation buffer at a concentration of 0.83×10^6 cells/ml and cAMP detection antibody was added. 6 μl/well of this solution was then dispensed in a 384 well plate (cell density 5000 cells/well). Test compound was serially diluted in DMSO and 50 nl were dispensed on top of the cell solution and allowed to incubate for 30 minutes. 6 μl of a 2× glucagon solution (final concentration in assay 100 pM) was then added and the reaction was terminated after 5 minutes with the addition of detection mix. The resulting mixture was incubated, protected from light for 1.5 h. cAMP levels were quantified by TR-FRET in an EnVision instrument against a known standard. IC50's were generated by using a non-linear regression macro driven in Excel and converted to Ki values.
Turning to `CCCCCCC(c1ccc(C(=O)NCCC(=O)O)cc1)n1cc2cc(-c3ccc(Cl)cc3C)ccc2n1` (stereo not shown) [compound 204], the inhibition constant Ki (usually a dissociation constant, usually derived from enzyme kinetics or from competition with a known ligand) stood at 21 nM.

Take `Cc1ccc(-c2ccc3c(cnn3C(CC(C)C)c3ccc(C(=O)NCCC(=O)O)cc3)c2C)c(C)c1` (stereo not shown) [Compound #177, 3-(4-(1-(5-(2,4-Dimethylphenyl)-4-methyl-1H-indazol-1-yl)-3-methylbutyl)benzamido)propanoic acid]: the inhibition constant (Ki) was determined as 485 nM.

As to `COc1ccc2cc(-c3ccc4c(cnn4C(CC(C)C)c4ccc(C(=O)NCCC(=O)O)cc4)c3)ccc2c1` (stereo not shown) [compound 222], the inhibitory constant (Ki) is 800 nM.

`Cc1cc(C(F)(F)F)ccc1-c1ccc2nn(C(CC(C)C)c3ccc(C(=O)NCCC(=O)O)nc3)cc2c1C` (stereo not shown) [Compound #155, 3-(5-(3-Methyl-1-(4-methyl-5-(2-methyl-4-(trifluoromethyl)phenyl)-2H-indazol-2-yl)butyl)picolinamido)propanoic acid]: the Ki was determined as 9 nM.

Take `CCCCCCC(c1ccc(C(=O)NCCC(=O)O)cc1)n1ncc2cc(-c3ccc(C(F)(F)F)cc3)ccc21` (stereo not shown) [compound 159]: the Ki worked out at 155 nM.

`CC(C)CC(c1ccc(C(=O)NCCC(=O)O)nc1)n1cc2cc(-c3ccc(C(F)(F)F)cc3Cl)c(Cl)cc2n1` (stereo not shown) [Compound #33, 3-[[5-[1-[6-Chloro-5-[2-chloro-4-(trifluoromethyl)phenyl]indazol-2-yl]-3-methyl-butyl]pyridine-2-carbonyl]amino]propanoic acid]: the Ki came out at 70 nM.

As to `CC(C)CC(c1ccc(C(=O)NCCC(=O)O)nc1)n1ncc2cc(-c3ccc(C(C)(C)C)cc3)ccc21` (stereo not shown) [Compound #36, 3-(5-(1-(5-(4-(tert-Butyl)phenyl)-1H-indazol-1-yl)-3-methylbutyl)picolinamido)propanoic acid], the Ki amounted to 430 nM.

Turning to `Cc1cc2c(cnn2[C@H](CC(C)C)c2ccc(C(=O)NCCC(=O)O)cc2)cc1-c1ccc(C(F)(F)F)cc1` [Compound #229, 3-[[4-[(1R)-3-Methyl-1-[6-methyl-5-[4-(trifluoromethyl)phenyl]indazol-1-yl]butyl]benzoyl]amino]propanoic acid], the inhibition constant Ki amounted to 1550 nM.

As for `CC(C)CC(c1ccc(C(=O)NCCC(=O)O)nc1)n1ncc2cc(-c3cc(Cl)cc(Cl)c3)ccc21` (stereo not shown) [compound 119], the inhibitory constant (Ki) was above 2600 nM.

As for `O=C(O)CCNC(=O)c1ccc(C(CC2CCCCC2)n2ncc3cc(-c4ccc(C(F)(F)F)cc4)ccc32)cn1` (stereo not shown) [compound 255], the Ki was 550 nM.

As to `O=C(O)CCNC(=O)c1ccc(C(CCC(F)(F)F)n2cc3cc(-c4ccc(Cl)cc4Cl)ccc3n2)cc1` (stereo not shown) [Compound #224, 3-[[4-[1-[5-(2,4-Dichlorophenyl)indazol-2-yl]-4,4,4-trifluorobutyl]benzoyl]amino]propanoic acid], the inhibition constant (Ki) was 110 nM.

`CC(C)CC(c1ccc(C(=O)NCCC(=O)O)nc1)n1cc2cc(-c3cc4ccccc4o3)ccc2n1` (stereo not shown) [Compound #260, 3-(5-(1-(5-(Benzofuran-2-yl)-2H-indazol-2-yl)-3-methylbutyl)picolinamido)propanoic acid]: the Ki worked out at 135 nM.

Take `CC(C)CC(c1ccc(C(=O)NCCC(=O)O)cc1)n1ncc2cc(-c3ccc4ncccc4c3)ccc21` (stereo not shown) [Compound #7]: the Ki is 800 nM.

For `CC(C)CC(c1ccc(C(=O)NCCC(=O)O)cc1)n1ncc2cc(-c3ccsc3)ccc21` (stereo not shown) [compound 221], the inhibition constant Ki is 2900 nM.

In the case of `Cc1cc2c(cnn2C(CC(C)C)c2ccc(C(=O)NCCC(=O)O)cc2)cc1-c1ccc(C(F)(F)F)cc1Cl` (stereo not shown) [Compound #94, 3-[[4-[1-[5-[2-Chloro-4-(trifluoromethyl)phenyl]-6-methyl-indazol-1-yl]-3-methyl-butyl]benzoyl]amino]propanoic acid], the inhibition constant (Ki) is 26 nM.

With `Cc1c(-c2ccc(C(F)(F)F)cc2Cl)ccc2c1cnn2[C@@H](CC(C)C)c1ccc(C(=O)NCCC(=O)O)cc1` [Compound #241, (S)-3-(4-(1-(5-(2-Chloro-4-(trifluoromethyl)phenyl)-4-methyl-1H-indazol-1-yl)-3-methylbutyl)benzamido)propanoic acid], the Ki amounted to 42 nM.
